Source: publication PMC5473854, “Structure of the human TRiC/CCT Subunit 5 associated with hereditary sensory neuropathy” (Scientific Reports, 2017)

Molecular target: T1, human CCT5 (TRiC subunit 5) homo-oligomeric complex (Homo sapiens, UniProt P48643, H147R)
T1 construct: recombinant from pET21a in E. coli BL21(DE3)RIL, Histrap purified (tag not described here); double homo-octameric ring (two rings of eight, homo-hexadecamer)
Assay: X-ray crystal structure, […] Å
Settings: co-crystallised with 5.0 mM ADP; nucleotide-binding site of equatorial domain; 4 ADP per 4 subunits in asymmetric unit

T1 sequence (P48643 whole entry H147R, one chain of several): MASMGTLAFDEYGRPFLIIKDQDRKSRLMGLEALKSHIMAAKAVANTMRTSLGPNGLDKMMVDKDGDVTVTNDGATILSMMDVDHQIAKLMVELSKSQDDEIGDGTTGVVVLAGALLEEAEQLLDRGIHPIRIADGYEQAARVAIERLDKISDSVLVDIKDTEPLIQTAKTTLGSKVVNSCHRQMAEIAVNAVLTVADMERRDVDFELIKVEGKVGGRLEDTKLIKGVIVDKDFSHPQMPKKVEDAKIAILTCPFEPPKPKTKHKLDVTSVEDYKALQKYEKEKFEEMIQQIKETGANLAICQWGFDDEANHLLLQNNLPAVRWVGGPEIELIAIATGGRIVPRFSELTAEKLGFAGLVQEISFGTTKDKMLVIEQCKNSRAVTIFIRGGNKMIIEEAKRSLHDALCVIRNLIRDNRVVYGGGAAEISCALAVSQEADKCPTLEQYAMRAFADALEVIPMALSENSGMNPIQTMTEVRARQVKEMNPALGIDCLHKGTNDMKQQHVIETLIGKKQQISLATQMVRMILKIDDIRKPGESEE

## Nc1ncnc2c1ncn2[C@@H]1O[C@H](COP(=O)(O)OP(=O)(O)O)[C@@H](O)[C@H]1O [ADP]
  X-ray crystal structure, 3.6 Å: the CCT5-H147R structure was solved in complex with the nucleotide ADP
